Columns and labels:
[1] = human
[2] = Highest frequency of acute liver toxicity observed during clinical trials, expressed as a percentage. [column '% AIGUE' in source]; conditions: human
[3] = human; remark: listed apart in the source
[4] = human; remark: listed apart in the source
[5] = human, serum
[6] = human; remark: listed apart in the source
[7] = human; remark: listed apart in the source
[8] = human; remark: listed apart in the source
[9] = Times to onset, minimal and maximal, observed in the indexed observations. [column 'DELAI' in source]; conditions: human
[10] = human, serum; remark: listed apart in the source
[11] = human; remark: listed apart in the source
[12] = human, serum, 4383 h
[13] = human; remark: listed apart in the source
[14] = Highest frequency of moderate liver toxicity observed during clinical trials, expressed as a percentage. [column '% BIOL' in source]; conditions: human
[15] = human; remark: listed apart in the source
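Wherever Hepatotoxicity (association with vascular disease) is given: count of indexed literature references reporting vascular liver injury in humans, e.g. peliosis hepatitis, hepatic veno-occlusive disease or Budd-Chiari syndrome.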
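Wherever Hepatotoxicity (benign tumour) is given: value is a count of indexed literature references citing a benign tumour confirmed by histopathology.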
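Wherever Hepatotoxicity (choleostasis) is given: human cholestatic liver injury, shown by histopathology or by peak ALT or AST elevation over alkaline phosphatase ratio below 2, value counts indexed literature reports.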
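Wherever Hepatotoxicity (chronic liver disease) is given: chronic liver injury confirmed by histopathology or persistently raised serum aminotransferase activity beyond 6 months, value given as the count of indexed literature references.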
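Wherever Hepatotoxicity (cirrhosis) is given: value is a count of indexed literature references reporting cirrhosis confirmed by histopathology.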
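Wherever Hepatotoxicity (cytolytic) is given: human cytolytic liver injury, shown by histopathology or by a ratio above 5 of peak ALT or AST elevation to alkaline phosphatase elevation, value counts indexed references.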
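Wherever Hepatotoxicity (granulomatous hepatitis) is given: value is a count of indexed literature references reporting granulomatous liver disease confirmed by histopathology.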
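Wherever Hepatotoxicity (malignant tumour) is given: malignant tumour confirmed by histopathology, value gives the count of indexed literature references reporting it.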
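Wherever Hepatotoxicity (severe hepatitis) is given: human clinical data: severe hepatitis, meaning potentially life-threatening liver failure or clinically observed cases, the value counts how many indexed literature references report it.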
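Wherever Hepatotoxicity (steatosis) is given: steatosis confirmed by histopathology, value is the count of indexed references.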

| Compound | Hepatotoxicity (cirrhosis) [1] | Hepatotoxicity (acute) [2] | Hepatotoxicity (granulomatous hepatitis) [3] | Hepatotoxicity (cytolytic) [4] | Hepatotoxicity (acute) [5] | Hepatotoxicity (choleostasis) [6] | Hepatotoxicity (benign tumour) [7] | Hepatotoxicity (steatosis) [8] | Hepatotoxicity (time to onset) [9] | Hepatotoxicity (moderate) [10] | Hepatotoxicity (severe hepatitis) [11] | Hepatotoxicity (chronic liver disease) [12] | Hepatotoxicity (malignant tumour) [13] | Hepatotoxicity (moderate) [14] | Hepatotoxicity (association with vascular disease) [15] | also measured |
| --- | --- | --- | --- | --- | --- | --- | --- | --- | --- | --- | --- | --- | --- | --- | --- | --- |
| NS(=O)(=O)c1cc2c(cc1Cl)NC(C(Cl)Cl)NS2(=O)=O (stereo not given) [TRICHLORMETHIAZIDE] | 0 | 0% | 1 | 0 | 0 | 0 | 0 | 0 | 1 week | 1 | 0 | 0 | 0 | 0% | 0 |  |
| CSc1nc2cc(Cl)c(Oc3cccc(Cl)c3Cl)cc2[nH]1 [TRICLABENDAZOLE] | 0 | 0.7% | 0 | 0 | 1 | 1 | 0 | 0 | 3 days | 0 | 0 | 0 | 0 | 0% | 0 |  |
| COc1ccc(CN2CCNCC2)c(OC)c1OC [TRIMETAZIDINE] | 0 | 0% | 0 | 0 | 1 | 1 | 0 | 0 | 2 weeks | 0 | 0 | 0 | 0 | 0% | 0 |  |
| COc1cc(C(=O)NCc2ccc(OCCN(C)C)cc2)cc(OC)c1OC [TRIMETHOBENZAMIDE] | 0 | 0% | 0 | 2 | 2 | 1 | 0 | 0 | 5 days | 0 | 0 | 0 | 0 | 0% | 0 |  |
| N[C@@H]1[C@H]2CN(c3nc4c(cc3F)c(=O)c(C(=O)O)cn4-c3ccc(F)cc3F)C[C@@H]12 [TROVAFLOXACIN] | 0 |  | 0 | 6 | 6 | 1 | 0 | 0 | 5 days - 4 weeks | 4 |  | 0 | 0 |  | 0 | Hepatotoxicity (acute) ([2]; Liver): 0%; Hepatotoxicity (severe hepatitis) ([11]; Liver): 1; Hepatotoxicity (moderate) ([14]; Liver): 2.3% |
| CN[C@H](CC(C)C)C(=O)N[C@H]1C(=O)N[C@@H](CC(N)=O)C(=O)N[C@H]2C(=O)N[C@H]3C(=O)N[C@H](C(=O)N[C@H](C(=O)O)c4cc(O)cc(O)c4-c4cc3ccc4O)[C@H](O)c3ccc(c(Cl)c3)Oc3cc2cc(c3O[C@@H]2O[C@H](CO)[C@@H](O)[C@H](O)[C@H]2O[C@H]2C[C@](C)(N)[C@H](O)[C@H](C)O2)Oc2ccc(cc2Cl)[C@H]1O [VANCOMYCIN] | 0 | 0% | 0 | 1 | 1 | 0 | 0 | 0 | 4 days | 9 | 0 | 0 | 0 | 50% | 0 |  |
| Nc1c2c(nc3ccccc13)CCCC2O (stereo not given) [VELNACRINE] | 0 | 7.3% | 0 | 2 | 2 | 0 | 0 | 0 | 4 weeks - 3 months | 8 | 0 | 0 | 0 | 35% | 0 |  |
| C=CC(N)CCC(=O)O (stereo not given) [VIGABATRIN] | 0 | 0% | 0 | 2 | 2 | 0 | 0 | 0 | 9 months | 3 | 1 | 0 | 0 | 13.3% | 0 |  |
| CCC1=C[C@@H]2CN(C1)Cc1c([nH]c3ccccc13)[C@@](C(=O)OC)(c1cc3c(cc1OC)N(C)[C@H]1[C@@](O)(C(=O)OC)[C@H](OC(C)=O)[C@]4(CC)C=CCN5CC[C@]31[C@@H]54)C2 [VINORELBINE] | 0 | 6% | 0 | 2 | 3 | 0 | 0 | 0 | 2 days - 10 days | 6 | 1 | 0 | 0 | 24.1% | 0 |  |
| CCOC(Nc1ccc(C(=O)O)cc1)C(=O)c1ccc(-c2ccccc2)cc1 (stereo not given) [XENAZOIC ACID] | 0 | 0% | 0 | 0 | 2 | 0 | 0 | 0 | 1 week - 2 weeks | 0 | 0 | 0 | 0 | 0% | 0 |  |
| Nc1ccn([C@H]2CC[C@@H](CO)O2)c(=O)n1 [ZALCITABINE] | 0 |  |  |  | 4 |  | 0 | 2 | 3 weeks - 10 months | 5 |  | 0 | 0 |  | 0 | Hepatotoxicity (acute) ([2]; Liver): 8.5%; Hepatotoxicity (granulomatous hepatitis) ([3]; Liver): 0; Hepatotoxicity (cytolytic) ([4]; Liver): 3; Hepatotoxicity (choleostasis) ([6]; Liver): 0; Hepatotoxicity (severe hepatitis) ([11]; Liver): 0; Hepatotoxicity (moderate) ([14]; Liver): 14.9% |
| CC(=O)N[C@H]1[C@H]([C@H](O)[C@H](O)CO)OC(C(=O)O)=C[C@@H]1N=C(N)N [ZANAMIVIR] | 0 | 0% | 0 | 0 | 0 | 0 | 0 | 0 | 8 days | 2 | 0 | 0 | 0 | 14.5% | 0 |  |
| CN1CCN(C(=O)OC2c3nccnc3C(=O)N2c2ccc(Cl)cn2)CC1 (stereo not given) [ZOPICLONE] | 0 | 0% | 0 | 1 | 1 | 1 | 0 | 0 | 6 months | 0 | 0 | 0 | 0 | 0% | 0 |  |
| COLESTIPOL | 0 | 0% | 0 | 1 | 1 | 0 | 0 | 0 | 6 months | 1 | 0 | 0 | 0 | 0.8% | 0 |  |

Source: ChEMBL document CHEMBL3137667, “[Drug-induced liver injury; fourteenth updated edition of the bibliographic database of liver injuries and related drugs]” (Gastroenterol Clin Biol, 2004)
